The nature of data set [1]: in vitro. On the set-up: species or system A549, Huh7, HeLa, U87MG; MTT colorimetric cell growth / viability assay. As to conditions: human, hacat cells. The method, then: Lung cancer cells (A549), liver cancer cells (Huh7), cervical cancer cells (HeLa), brain cancer cells (U87MG), and a normal cell line (human keratinocyte cell line (HaCaT)) were acquired from the Korean Cell Line Bank (Seoul, Republic of Korea). Ten percent fetal bovine serum (FBS) was added to Dulbecco’s modified Eagle’s medium (DMEM) to culture the HeLa A549 cells. Similarly, Huh7 cells were grown in DMEM obtained from Corning Cellgro Manassas, VA, USA. Glioblastoma U87MG cells were cultured in a minimum essential medium (MEM) supplemented with 10% FBS. DMEM supplemented with 10% FBS, 100 µg/mL streptomycin, and 100 µg/mL benzylpenicillin was used to grow HaCaT cell lines. Each cell line was kept in an incubator with 5% CO2 that was humidified at 37 °C (Thermo Scientific, Vantaa, Finland). For the cell growth assays, various cancer cells at 2 × 10^3 cells/well were plated in 96-well culture plates. NOC-IBR1 and NOC-IBR2 were added to each well at various concentrations (200 μM, 100 μM, 50 μM, 25 μM, 12.5 μM, 6.25 μM, 3.16 μM, 1.56 μM, and 0.78 μM), and the cells were incubated for 72 h. […] Figure 4 The cytotoxicity of NOC-IBR1 and NOC-IBR2 was assessed across different cell lines. […] Cell growth was measured using the MTT colorimetric assay. […] Similarly, the IC50 values of doxorubicin in the above cell lines were also calculated (Table S4). […]

The test system of data set [2] is T1, ThnM3.
T1 construct: methyltransferase of the tetrahydroxynaphthalene (THN) gene cluster
As to the kind of experiment: O-methylation assay, HPLC, nonlinear Michaelis-Menten fit. Format: biochemical, Nocardia sp. CS682. The conditions noted are these: 50 mM Tris, pH 8 in methods but pH 7.5 in Figure 5 legend, 5 µg ThnM3.

Data set [3] relates to A549. As to the kind of experiment: cells. On the set-up: species or system Huh7, HeLa, U87MG, HaCaT; MTT colorimetric cell growth / viability assay. As to conditions: Homo sapiens, A549, 72 h; read-out: NOC-IBR1 IC50. As to the method: (§1) Lung cancer cells (A549), liver cancer cells (Huh7), cervical cancer cells (HeLa), brain cancer cells (U87MG), and a normal cell line (human keratinocyte cell line (HaCaT)) were acquired from the Korean Cell Line Bank (Seoul, Republic of Korea). Ten percent fetal bovine serum (FBS) was added to Dulbecco’s modified Eagle’s medium (DMEM) to culture the HeLa A549 cells. Similarly, Huh7 cells were grown in DMEM obtained from Corning Cellgro Manassas, VA, USA. Glioblastoma U87MG cells were cultured in a minimum essential medium (MEM) supplemented with 10% FBS. DMEM supplemented with 10% FBS, 100 µg/mL streptomycin, and 100 µg/mL benzylpenicillin was used to grow HaCaT cell lines. Each cell line was kept in an incubator with 5% CO2 that was humidified at 37 °C (Thermo Scientific, Vantaa, Finland). For the cell growth assays, various cancer cells at 2 × 10^3 cells/well were plated in 96-well culture plates. NOC-IBR1 and NOC-IBR2 were added to each well at various concentrations (200 μM, 100 μM, 50 μM, 25 μM, 12.5 μM, 6.25 μM, 3.16 μM, 1.56 μM, and 0.78 μM), and the cells were incubated for 72 h. A 3-(4,5-dimethylthiazol-2-yl)-2,5-diphenyltetrazolium bromide (MTT) colorimetric assay was used to measure cell growth (cell viability).  Figure 4 The cytotoxicity of NOC-IBR1 and NOC-IBR2 was assessed across different cell lines. Each cell line was maintained in a 5% CO2 humidified incubator at 37 °C. The cells were seeded at a density of 2 × 10^3 cells/well in 96-well culture plates for the cell growth assay. Various concentrations of the compounds (200 μM, 100 μM, 50 μM, 25 μM, 12.5 μM, 6.25 μM, 3.16 μM, 1.56 μM, and 0.78 μM) were added to each well, and the cells were incubated for 72 h. Cell growth was measured using the MTT colorimetric assay. NOC-IBR1 and NOC-IBR2 were further subjected to cytotoxicity assays against four different cancer cell lines using a colorimetric test of 3-(4,5-dimethylthiazol-2-yl)-2,5-diphenyltetrazolium bromide (MTT) (Figure 4). […] Similarly, the IC50 values of doxorubicin in the above cell lines were also calculated (Table S4). […] These findings further indicate that NOC-IBR1 and NOC-IBR2 substantially reduce the viability of A549, Huh7, HeLa, and U87MG cells in a dose-dependent manner. This is the first report on the cytotoxicity of these two compounds against cancer cell lines.

For data set [4], the system named is HeLa. As to the kind of experiment: cells. On the set-up: species or system A549, Huh7, U87MG, HaCaT; MTT colorimetric cell growth / viability assay. As to conditions: Homo sapiens, HeLa, 72 h; read-out: NOC-IBR1 IC50. As to the method: as §1
The test system of data set [5] is Huh7. As to the kind of experiment: cells. Details: species or system A549, HeLa, U87MG, HaCaT; MTT colorimetric cell growth / viability assay. As to conditions: Homo sapiens, Huh-7, 72 h; read-out: NOC-IBR1 IC50. The method, then:
as §1

Data set [6] concerns U87MG. As to the kind of experiment: cells. The conditions noted are these: Homo sapiens, U-87 MG, 72 h; read-out: NOC-IBR1 IC50. Details: species or system A549, Huh7, HeLa, HaCaT; MTT colorimetric cell growth / viability assay. As to the method:
as §1

Where two headings read alike, the source gives them in different places.

A word on the Km: it is the concentration of substrate that gives half-maximal velocity. A word on the IC50: it is the concentration that gives 50% inhibition.

Turning to `COc1cccc2c1C(=O)c1c(O)c3c(c(O)c1C2=O)C[C@@](O)(C(=O)CO)C[C@@H]3O[C@H]1C[C@H](N)[C@H](O)[C@H](C)O1` [Doxorubicin], the CC50 at 72 h in data set [1] (read-out: Doxorubicin IC50 (μM), normal cells) was 0.681 µM.

Consider `COc1cc2c(c(O)c1O)C(=O)c1c(coc1C)C2` [NOC-IBR1, 6-methoxy-7,8-dihydroxy-1-methylnaphtho [2,3-c] furan-9-one], for which the Km in data set [2] (2 mM SAM (saturating), read-out: apparent Km) came out at 15.6 ± 1.75 µM. In addition, the IC50 in data set [3] was 200 µM; in data set [4], 61.1 µM; in data set [5], 44.4 µM; in data set [6], 120 µM. The CC50 at 72 h in data set [1] (read-out: NOC-IBR1 IC50 (μM), normal cells) was more than 200 µM.

For the compound `C[S+](CC[C@H](N)C(=O)O)C[C@H]1O[C@@H](n2cnc3c(N)ncnc32)[C@H](O)[C@@H]1O` (some centres unmarked) [SAM], the Km in data set [2] (methyl donor, 100 µM NOC-IBR1 (near-saturating), read-out: Km) came to 39.7 ± 6.08 µM.

Values taken from PMC11354674, “Genome Mining and Genetic Manipulation Reveal New Isofuranonaphthoquinones in Nocardia Species” (International Journal of Molecular Sciences, 2024).
